Measured values taken from patent EP4818187A1, “COMPOUND AND USE THEREOF” (Ganzhou Hemay Pharmaceutical, Co., Ltd, priority 2023, dated 2025).

Columns and labels:
[1] = test system: human ovarian cancer SK-OV-3; assay: Biological Example 5: in vivo xenograft model of human ovarian cancer SK-OV-3; set-up: species or system Balb/c-nu nude mice; conditions: SK-OV-3 xenograft, nude mice, 0.8 mg/kg i.v. qw×3
[2] = test system: BxPC-3 (human pancreatic cancer in situ); assay: In vitro inhibitory effect against human tumor cells (MTT or SRB); assay type: cell-based; conditions: BXPC-3, 72 h, BxPC-3, test method printed MTT (head: SRB), 3 days
Method: (§1) Cells were cultured with 5% CO2 at 37°C and saturated humidity until they reached a logarithmic growth phase (usually adherent cells were nearly fully confluent). After removing adherent cells by trypsin/EDTA digestion, the cells were collected for subsequent experiments.
(§2) The cells were inoculated into a 96-well cell culture plate (hereinafter referred to as the 96-well plate) based on the cell count shown in Table 2, cultured overnight to achieve cell adherence, and then, after different concentrations of the test compound were added, further cultured for a total of 3 days. Finally, the total cell protein in the assay wells was assayed by SRB, or the cell viability was assessed by MTT:
(§3) 2.1 Assaying total cell protein by SRB: the modification is based on the method in the literature (V. Vichai and K. Kirtikara. Sulforhodamine B colorimetric assay for cytotoxicity screening. Nature Protocols. 2006, 1: 1112-1116). Specific method: the culture medium was pipetted out from the wells, the cells were fixed with 10% trichloroacetic acid for more than 1 h, and trichloroacetic acid was removed; the cells were washed with H2O, and stained with 0.4% SRB for 15-30 min; after excess SRB was removed, the cells were washed with 1% acetic acid; 100 µl of 10 mM tris(trihydroxymethylaminomethane) was added to dissolve the protein-bound SRB, followed by assay at a wavelength of 570 nm.
(§4) 2.2 Assaying cell viability by MTT: the modification is based on the method in the literature (J. Carmichael, W. DeGraff, A. Gazdar et al., Evaluation of a tetrazolium-based semiautomated colorimetric assay: assessment of chemosensitivity testing. Cancer Research. 1987, 47: 936-942). Specific method: For well-adherent cells: the medium was pipetted out, 100 µL of a basal medium containing 0.5 mg/mL MTT (medium free of fetal bovine serum (FBS) and other additives) was added to each well, and culture was continued for additional 3 h. The MTT-containing basal medium was pipetted out, and 100 µL of DMSO was added to each well to dissolve formazan, followed by assay at a wavelength of 490 nm.
(§5) For poorly-adherent cells: MTT solution was directly added to a concentration of 0.5 mg/mL, culture was continued for additional 3 h, and an equal volume of triple solvent was added to the system to dissolve formazan, followed by assay at a wavelength of 570 nm.
(§6) 2.3: 1-2 mg of β-glucuronidase was weighed, and dissolved in PBS to prepare 2 mg/mL stock solution. Prior to use, the stock solution was diluted with a complete medium to prepare 12.5 µg/mL enzyme working solution. For assay wells requiring the enzyme, 80 µL of the enzyme working solution was added, with the β-glucuronidase at a concentration of 1 µg/well; and for assay wells not requiring the enzyme, 80 µL of the complete medium was added.
(§7) 1-3 mg of the test compound was weighed, and dissolved in DMSO to prepare 20 mM stock solution. The stock solution was diluted in a 3-fold gradient with DMSO, then diluted 100-fold with RPMI1640 basal medium to obtain 10× working solutions, with a total of 8 concentrations. 20 µL of the 10× working solutions were add to the assay wells, with the final volume of each well of 200 µL, and with the DMSO at a concentration of 0.1%.
(§8) 2.4 Calculation of inhibitory activity of compound: the experiment includes a compound test group, a compound-free positive solvent control group (PC), and a negative solvent control group (NC) without cells and the compound. Inhibition rate = [1−(testvalue−NCmean)/(PCmean−NCmean)] × 100% [formula]
(§9) The mean and SD of the inhibition rate were obtained from replicate assay wells. A curve was plotted with the compound concentrations distributed in a logarithmic form as the abscissa and with the mean inhibition rates as the ordinate, and was fitted with a 4-parameter logistic equation. The compound concentration corresponding to 50% inhibition rate on the curve is the IC50 value. Table 2: Culture medium formulation and cell inoculation concentration for human tumor cell lines

[3] = test system: human non-small cell lung cancer NCI-H1975; assay: Biological Example 10: in vivo xenograft model of human non-small cell lung cancer NCI-H1975; set-up: species or system Balb/c-nu nude mice; conditions: nude mice; for Final body weight change (%) / Maximum body weight change (%) / Relative volume RTV (x±S.D.) / T/C (%) / Tumor inhibition rate (%) / Tumor weight (g, x±S.D.): 0.4 mg/kg i.v. qw×2; for Body weight (g, x±S.D.) End 24d: 0.4 mg/kg i.v. qw×2, End 24d; for Body weight (g, x±S.D.) Start: 0.4 mg/kg i.v. qw×2, Start
[4] = test system: Fadu (human pharyngeal squamous cell carcinoma); assay: In vitro inhibitory effect against human tumor cells (MTT); assay type: cell-based; conditions: 72 h, 3 days
Method: as §1, §2, §4, §5, §6, §7, §8, §9

[5] = test system: NCI-H1975 (human non-small cell lung cancer); assay: as above; assay type: cell-based; conditions: NCI-H1975, 72 h, 3 days
Method: as §1, §2, §4, §5, §6, §7, §8, §9

[6] = test system: HCT116 (human colorectal cancer); assay: as above; assay type: cell-based; conditions: HCT-116, 72 h, 3 days
Method: as §1, §2, §4, §5, §6, §7, §8, §9

[7] = test system: SK-OV-3 (human ovarian cancer); assay: as above; assay type: cell-based; conditions: SK-OV-3, 72 h, SK-OV-3, MTT, 3 days
Method: as §1, §2, §4, §5, §6, §7, §8, §9

[8] = test system: A375 (human malignant melanoma); assay: In vitro inhibitory effect against human tumor cells (SRB); assay type: cell-based; conditions: A-375, 72 h, 3 days
Method: as §1, §2, §3, §6, §7, §8, §9

[9] = test system: HepG2 (human liver cancer cell); assay: as above; assay type: cell-based; conditions: HepG2, 72 h, 3 days
Method: as §1, §2, §3, §6, §7, §8, §9

[10] = test system: 22RV1 (human prostate cancer); assay: as above; assay type: cell-based; conditions: 22Rv1, 72 h, 22RV1, SRB, 3 days
Method: as §1, §2, §3, §6, §7, §8, §9

[11] = test system: human non-small cell lung cancer NCI-H1975; assay: Biological Example 7: in vivo xenograft model of human non-small cell lung cancer NCI-H1975; set-up: species or system Balb/c-nu nude mice; conditions: nude mice; for Final body weight change (%) / Maximum body weight change (%) / Relative volume RTV (x±S.D.) / T/C (%) / Tumor inhibition rate (%) / Tumor weight (g, x±S.D.): 0.8 mg/kg i.v. qw×3; for Body weight (g, x±S.D.) End: 0.8 mg/kg i.v. qw×3, End; for Body weight (g, x±S.D.) Start: 0.8 mg/kg i.v. qw×3, Start
[12] = With addition of βGU (1 µg/well)

Row | SMILES | Final body weight change (%) [1] | Maximum body weight change (%) [1] | Relative volume RTV (x±S.D.) [1] | T/C (%) [1] | Tumor inhibition rate (%) [1] | Tumor weight (g, x±S.D.) [1] | Body weight (g, x±S.D.) End [1] | Body weight (g, x±S.D.) Start [1] | IC50 [2, 12] | IC50 ([2]; βGU-free) | IC50 [4, 12] | IC50 ([4]; βGU-free) | IC50 [5, 12] | IC50 ([5]; βGU-free) | IC50 [6, 12] | IC50 ([6]; βGU-free) | IC50 [7, 12] | IC50 ([7]; βGU-free) | IC50 [8, 12] | IC50 ([8]; βGU-free) | also measured
1 | CC[C@H](C)[C@@H]([C@@H](CC(=O)N1CCC[C@H]1[C@H](OC)[C@@H](C)C(=O)N[C@H](C)[C@@H](O)c1ccccc1)OC)N(C)C(=O)[C@@H](NC(=O)[C@H](C(C)C)[N+](C)(C)Cc1ccc(O[C@@H]2O[C@H](C(=O)[O-])[C@@H](O)[C@H](O)[C@H]2O)cc1OCc1cn(CCOCCC(=O)Nc2ccc(-c3ccc(/N=N/c4ccc5c(S(=O)(=O)[O-])cc(S(=O)(=O)[O-])c(N)c5c4O)c(C)c3)cc2C)nn1)C(C)C.[Na+].[Na+] [Example compound 9] | 5.3% | 5.3, d21% | 0.05±0.03 | 0.4% | 99.9% | 0.002 ± 0.001 g | 25.8 ± 0.7 g | 24.5 ± 0.6 g | 0.86 nM | 28 nM | 0.35 nM | 25 nM | 4.7 nM | 69 nM | 2.9 nM | 69 nM | 2.4 nM | 65 nM | 2.7 nM | 27 nM | Final body weight change (%) [3]: 4.8%; Maximum body weight change (%) [3]: 4.8, d28%; Relative volume RTV (x±S.D.) [3]: 0.38±0.05; T/C (%) [3]: 7.7%; Tumor inhibition rate (%) [3]: 93.4%; Tumor weight (g, x±S.D.) [3]: 0.073 ± 0.016 g; Body weight (g, x±S.D.) End 24d [3]: 23.5 ± 0.6 g; Body weight (g, x±S.D.) Start [3]: 22.5 ± 1.4 g; IC50 [9, 12]: 3.8 nM; IC50 ([9]; βGU-free): 88 nM; IC50 [10, 12]: 3.8 nM; IC50 ([10]; βGU-free): 86 nM; Final body weight change (%) [11]: 8.8%; Maximum body weight change (%) [11]: 8.8, d21%; Relative volume RTV (x±S.D.) [11]: 0.45±0.30; T/C (%) [11]: 3.2%; Tumor inhibition rate (%) [11]: 97.7%; Tumor weight (g, x±S.D.) [11]: 0.041 ± 0.051 g; Body weight (g, x±S.D.) End [11]: 28.3 ± 2.9 g; Body weight (g, x±S.D.) Start [11]: 26.1 ± 2.8 g
2 | CC[C@H](C)[C@@H]([C@@H](CC(=O)N1CCC[C@H]1[C@H](OC)[C@@H](C)C(=O)N[C@H](C)[C@@H](O)c1ccccc1)OC)N(C)C(=O)[C@@H](NC(=O)[C@H](C(C)C)[N+](C)(C)Cc1ccc(O[C@@H]2O[C@H](C(=O)[O-])[C@@H](O)[C@H](O)[C@H]2O)cc1OCc1cn(CCCOCC(=O)Nc2ccc(-c3ccc(/N=N/c4ccc5c(S(=O)(=O)[O-])cc(S(=O)(=O)[O-])c(N)c5c4O)c(C)c3)cc2C)nn1)C(C)C.[Na+].[Na+] [Example compound 10] | 4.3% | 4.4, d18% | 0.37±0.73 | 3.2% | 97.9% | 0.035 ± 0.077 g | 24.7 ± 0.9 g | 23.7 ± 1.1 g | 0.71 nM | 29 nM | 0.64 nM | 14 nM | 1.9 nM | 50 nM | 3.4 nM | 87 nM | 2.7 nM | 74 nM | 1.4 nM | 33 nM | Final body weight change (%) [3]: 4.6%; Maximum body weight change (%) [3]: 4.6, d28%; Relative volume RTV (x±S.D.) [3]: 0.26±0.02; T/C (%) [3]: 5.2%; Tumor inhibition rate (%) [3]: 95.7%; Tumor weight (g, x±S.D.) [3]: 0.047 ± 0.020 g; Body weight (g, x±S.D.) End 24d [3]: 22.9 ± 0.8 g; Body weight (g, x±S.D.) Start [3]: 21.9 ± 1.3 g; IC50 [9, 12]: 4.1 nM; IC50 ([9]; βGU-free): 93 nM; IC50 [10, 12]: 4.4 nM; IC50 ([10]; βGU-free): 94 nM; Final body weight change (%) [11]: 10.2%; Maximum body weight change (%) [11]: 10.2, d21%; Relative volume RTV (x±S.D.) [11]: 0.66±0.23; T/C (%) [11]: 4.6%; Tumor inhibition rate (%) [11]: 97.7%; Tumor weight (g, x±S.D.) [11]: 0.041 ± 0.022 g; Body weight (g, x±S.D.) End [11]: 26.0 ± 1.0 g; Body weight (g, x±S.D.) Start [11]: 23.7 ± 1.3 g
3 | CC[C@H](C)[C@@H]([C@@H](CC(=O)N1CCC[C@H]1[C@H](OC)[C@@H](C)C(=O)N[C@H](C)[C@@H](O)c1ccccc1)OC)N(C)C(=O)[C@@H](NC(=O)[C@H](C(C)C)[N+](C)(CC)Cc1ccc(O[C@@H]2O[C@H](C(=O)[O-])[C@@H](O)[C@H](O)[C@H]2O)cc1OCc1cn(CCCOCC(=O)Nc2ccc(-c3ccc(/N=N/c4ccc5c(S(=O)(=O)[O-])cc(S(=O)(=O)[O-])c(N)c5c4O)c(C)c3)cc2C)nn1)C(C)C.[Na+].[Na+] (stereo partly shown) [Example compound 11] | 5.7% | 5.7, d21% | 0.19±0.23 | 1.7% | 99.3% | 0.011 ± 0.013 g | 25.7 ± 0.8 g | 24.4 ± 0.9 g | 0.4 nM | 15 nM | 0.61 nM | 21 nM | 1.7 nM | 64 nM | 1.1 nM | 55 nM | 1.7 nM | 77 nM | 1.6 nM | 45 nM | IC50 [9, 12]: 3 nM; IC50 ([9]; βGU-free): 66 nM; IC50 [10, 12]: 2.2 nM; IC50 ([10]; βGU-free): 63 nM; Final body weight change (%) [11]: 6.7%; Maximum body weight change (%) [11]: 6.7, d21%; Relative volume RTV (x±S.D.) [11]: 0.74±0.51; T/C (%) [11]: 5.2%; Tumor inhibition rate (%) [11]: 96.6%; Tumor weight (g, x±S.D.) [11]: 0.061 ± 0.049 g; Body weight (g, x±S.D.) End [11]: 27.0 ± 2.2 g; Body weight (g, x±S.D.) Start [11]: 25.3 ± 1.6 g
